Values quoted from earlier work in patent US20230310447A1, “METHODS OF TREATING AGE-RELATED COGNITIVE DECLINE” (Woolsey Pharmaceuticals, Inc., priority 2020, published 2023).

What was measured:
[1] = test system: memory in aging rats; settings: eighteen-month old rats; 0.1875 or 0.3750 mg per day, single daily injection; radial maze
[2] = 1-hydroxy (M3) metabolite, in vivo; Shibuya 2001

Compound	working memory [1]	half-life [2]
hydroxyfasudil	improvements in working memory	
O=S(=O)(c1cccc2c(O)nccc12)N1CCCNCC1 [hydroxyfasudil]		about 8 hours
